Converted amounts (≈) assume the structure as drawn. “And” between values parts separate entries of the source, which are not always exact repeats. Equal entries are not always repeated. Structures can show the parent of a compound that is named as a salt. Where two headings read alike, the source gives them in different places.
Key:
[1] = system: Mycobacterium tuberculosis standard strain H37Rv; test: Microplate Alamar Blue Assay (MABA), minimum inhibitory concentration; format: cell-based; conditions: for MIC: Mycobacterium tuberculosis; for in vitro anti-tuberculosis activity (in words): experimental data in Table 1
[2] = H37Rv, 7H9 liquid medium, MABA, lowest drug concentration that prevented the color change (blue to pink), read-out: MIC

In the case of `CCCCCCCCNCCNC1C2CC3CC(C2)CC1C3` (stereo not drawn) (as salt: hydrochloride) [XHJ-5-3, N-(adamantan-2-yl)-N′-octyl-ethane-1,2-diamine dihydrochloride], the melting point is reported as 224 to 226 °C.

`CCCCCCNCCNC1C2CC3CC(C2)CC1C3` (stereo not drawn) (as salt: hydrochloride) [XHJ-5-5, N-(adamantan-2-yl)-N′-hexyl-ethane-1,2-diamine dihydrochloride] showed a melting point of 212 to 216 °C.

Work on `NNC(=O)c1ccncc1` [INH, isoniazid, reference compound] yielded an MIC [1, 2] of 0.05 µg/mL (≈ 0.365 µM).

In the case of `CO[C@H]1/C=C/O[C@@]2(C)Oc3c(C)c(O)c4c(O)c(c(/C=N/N5CCN(C)CC5)c(O)c4c3C2=O)NC(=O)/C(C)=C\C=C\[C@H](C)[C@H](O)[C@@H](C)[C@@H](O)[C@@H](C)[C@H](OC(C)=O)[C@@H]1C` [RFP, rifampin, reference compound], the MIC [1, 2] is reported as 0.048 µg/mL (≈ 0.0583 µM).

In the case of `CC(C)=CCC/C(C)=C/C(=O)NCCNC1C2CC3CC(C2)CC1C3.Cl` (stereo not drawn) [XHJ-2-32, 3,7-dimethyl-oct-2,6-dienoic acid [2-(adamantan-2-yl-amino)ethyl]amide hydrochloride], the MIC ([1]; H37RV) is reported as 7.75 µg/mL, the “in vitro anti-tuberculosis activity (in words)” value [1] is reported as “good activity” and the melting point is reported as 150 to 164 °C.

In the case of `CC(C)=CCC/C(C)=C/CNCC(=O)NC1C2CC3CC(C2)CC1C3.Cl` (stereo not drawn) [XHJ-2-37, N-adamantan-2-yl-2-(3,7-dimethyl-oct-2,6-dienylamino)-acetamide hydrochloride], the MIC ([1]; H37RV) is reported as under 0.5 µg/mL, the “in vitro anti-tuberculosis activity (in words)” value [1] is reported as “good activity” and the melting point is reported as 168 to 172 °C.

For `CCS(=O)(=O)N(C/C=C(\C)CCC=C(C)C)CCN.Cl` [XHJ-2-39, N-geranyl-N-(2-aminoethyl)ethylsulfonamide hydrochloride], the MIC [1, 2] was over 32 µg/mL and the melting point was 103 to 106 °C.

With `CC(C)=CCC/C(C)=C/CN(CCN)S(=O)(=O)c1ccc(C)cc1.Cl` [XHJ-2-45, N-geranyl-N-(2-aminoethyl)-p-toluenesulfonamide hydrochloride] the MIC [1, 2] was 31.5 µg/mL and the melting point was 134 to 137 °C.

For `CCS(=O)(=O)N(C/C=C(\C)CCC=C(C)C)CCNC1C2CC3CC(C2)CC1C3.Cl` (stereo not drawn) [XHJ-3-1, N-adamantan-2-yl-N′,N′-ethylsulfonyl-(3,7-dimethyl-oct-2,6-dienyl)-ethane-1,2-diamine hydrochloride], the MIC ([1]; H37RV) was 6.96 µg/mL, the “in vitro anti-tuberculosis activity (in words)” value [1] was “good activity” and the melting point was 108 to 112 °C and 103 to 106 °C.

In the case of `CC(C)=CCC/C(C)=C/CN(CCNC1C2CC3CC(C2)CC1C3)S(=O)(=O)c1ccc(C)cc1.Cl` (stereo not drawn) [XHJ-3-3, N-adamantan-2-yl-N′,N′-p-toluenesulfonyl-(3,7-dimethyl-oct-2,6-dienyl)-ethane-1,2-diamine hydrochloride], the MIC ([1]; H37RV) is reported as 3.76 µg/mL, the “in vitro anti-tuberculosis activity (in words)” value [1] is reported as “good activity” and the melting point is reported as 179 to 182 °C.

`CC(C)=CCC/C(C)=C/CN(CCNC1C2CC3CC(C2)CC1C3)C(=O)/C=C(\C)CCC=C(C)C` (stereo not drawn) [XHJ-3-11, N-adamantan-2-yl-N′,N′-(3,7-dimethyl-oct-2,6-dienyl)-(3,7-dimethyl-oct-2,6-dienoyl)-ethane-1,2-diamine] gave an MIC ([1]; H37RV) of over 32 µg/mL.

With `CC(C)=CCC/C(C)=C/CN(CCN(C(=O)c1c[nH]c2ccccc12)C1C2CC3CC(C2)CC1C3)C(=O)c1c[nH]c2ccccc12` (stereo not drawn) [XHJ-3-15, N,N-adamantan-2-yl-(3-indolylformyl)-N′,N′-(3,7-dimethyl-oct-2,6-dienyl)-(3-indolylformyl)-ethane-1,2-diamine] the MIC ([1]; H37RV) was over 32 µg/mL and the melting point was 248 to 252 °C.

With `CC(C)=CCC/C(C)=C/CN(CCNC1C2CC3CC(C2)CC1C3)C(=O)CCc1c[nH]c2ccccc12` (stereo not drawn) [XHJ-3-27, N-adamantan-2-yl-N′,N′-(3-indolylpropionyl)-(3,7-dimethyl-oct-2,6-dienyl)-ethane-1,2-diamine] the MIC ([1]; H37RV) was 1.96 µg/mL (≈ 3.91 µM) and the “in vitro anti-tuberculosis activity (in words)” value [1] was “good activity”.

With `COc1cc(C(=O)N(C/C=C(\C)CCC=C(C)C)CCNC2C3CC4CC(C3)CC2C4)cc(OC)c1OC` (stereo not drawn) [XHJ-3-29, N-adamantan-2-yl-N′,N′-(3,4,5-trimethoxybenzoyl)-(3,7-dimethyl-oct-2,6-dienyl)-ethane-1,2-diamine] the MIC ([1]; H37RV) was 3.91 µg/mL (≈ 7.45 µM) and the “in vitro anti-tuberculosis activity (in words)” value [1] was “good activity”.

In the case of `CCCCCCCCCCC(=O)N(C/C=C(\C)CCC=C(C)C)CCNC1C2CC3CC(C2)CC1C3` (stereo not drawn) [XHJ-3-31, N-adamantan-2-yl-N′,N′-undecanoyl-(3,7-dimethyl-oct-2,6-dienyl)-ethane-1,2-diamine], the MIC ([1]; H37RV) is reported as 2.84 µg/mL (≈ 5.7 µM) and the “in vitro anti-tuberculosis activity (in words)” value [1] is reported as “good activity”.

For `CC(C)=CCC/C(C)=C/CN(CCN)C1C2CC3CC(C2)CC1C3` (stereo not drawn) [XHJ-3-45, N,N-(adamantan-2-yl)-(3,7-dimethyl-oct-2,6-dienyl)-ethane-1,2-diamine], the MIC ([1]; H37RV) was under 0.5 µg/mL, the “in vitro anti-tuberculosis activity (in words)” value [1] was “better activity” and the melting point was 102 to 104 °C.

`CCS(=O)(=O)NCCNC1C2CC3CC(C2)CC1C3` (stereo not drawn) [XHJ-3-46, N-(adamantan-2-yl)-N′-ethylsulfonyl-ethane-1,2-diamine] gave an MIC [1, 2] of over 32 µg/mL.

For `CC(C)=CCC/C(C)=C/CN(CCN(Cc1ccccc1)C1C2CC3CC(C2)CC1C3)Cc1ccccc1` (stereo not drawn) [XHJ-4-11, N,N-(adamantan-2-yl)-benzyl-N′,N′-(3,7-dimethyl-oct-2,6-dienyl)-benzyl-ethane-1,2-diamine], the MIC ([1]; H37RV) was 30.8 µg/mL (≈ 60.3 µM).

In the case of `CCCCCCCCN(C/C=C(\C)CCC=C(C)C)CCN(CCCCCCCC)C1C2CC3CC(C2)CC1C3` (stereo not drawn) [XHJ-4-15, N,N-(adamantan-2-yl)-octyl-N′,N′-(3,7-dimethyl-oct-2,6-dienyl)-octyl-ethane-1,2-diamine], the MIC ([1]; H37RV) is reported as over 32 µg/mL.

In the case of `CCCCCCCCNCCNC1C2CC3CC(C2)CC1C3` (stereo not drawn) [XHJ-5-3, N-(adamantan-2-yl)-N′-octyl-ethane-1,2-diamine dihydrochloride], the MIC ([1]; H37RV) is reported as 0.986 µg/mL and the “in vitro anti-tuberculosis activity (in words)” value [1] is reported as “better activity”.

With `CCCCCCNCCNC1C2CC3CC(C2)CC1C3` (stereo not drawn) [XHJ-5-5, N-(adamantan-2-yl)-N′-hexyl-ethane-1,2-diamine dihydrochloride] the MIC ([1]; H37RV) was 0.982 µg/mL and the “in vitro anti-tuberculosis activity (in words)” value [1] was “better activity”.

With `CC(C)=CCC/C(C)=C/CNCCNC(c1ccccc1)c1cccnc1` (stereo not drawn) [XHJ-5-8, N-(phenyl-pyridin-3-yl-methyl)-N′-(3,7-dimethyl-oct-2,6-dienyl)-ethane-1,2-diamine] the MIC ([1]; H37RV) was 16 µg/mL (≈ 44 µM) and the “in vitro anti-tuberculosis activity (in words)” value [1] was “better activity”.

For `CC(C)=CCC/C(C)=C/CNCCNC(c1ccccn1)c1ccccn1` [XHJ-5-14, N-(dipyridin-2-yl-methyl)-N′-(3,7-dimethyl-oct-2,6-dienyl)-ethane-1,2-diamine], the MIC ([1]; H37RV) was 4 µg/mL (≈ 11 µM) and the “in vitro anti-tuberculosis activity (in words)” value [1] was “better activity”.

For `C(CNC1C2CC3CC(C2)CC1C3)NC1CC1` (stereo not drawn) [XHJ-5-18, N-(adamantan-2-yl)-N′-cyclopropyl-ethane-1,2-diamine], the MIC [1, 2] was over 32 µg/mL and the melting point was 197 to 200 °C.
